“Also recorded” adds a separate entry of the source. Like-named read-outs stand apart in the source and are kept apart here.
Biological target: 3CL Protease (M^pro) (SARS-CoV-2) (Severe acute respiratory syndrome coronavirus 2, UniProt P0DTD1)
Assay: biochemical
Type: biochemical
Conditions: for inhibitory activity against M^pro: concentration not given; for inhibition at 100 µM: read-out: M^pro activity inhibited compared with the negative control; for inhibitory effects on the activity of Mpro: eight concentrations (0-200 μM) tested, Figure S2; for inhibition of the M^pro activity: range of concentrations from 0 to 500 μM tested

Structure (SMILES)	inhibitory activity against M^pro	inhibition at 100 µM	inhibitory effects on the activity of Mpro	inhibition of the M^pro activity	IC50	inhibition at 100 µM (100 μM compound)
O=C(OC1Cc2c(O)cc(O)cc2OC1c1cc(O)c(O)c(O)c1)c1cc(O)c(O)c(O)c1 (single isomer, unassigned; (-)) [EGCG, (–)-epigallocatechin-3-O-gallate]	inhibited	44.4%				
Oc1cc(O)c2c(c1)O[C@H](c1ccc(O)c(O)c1)[C@@H](O)C2 [CA, (+)-catechin]	did not have inhibitory activities; also recorded: No inhibitory activity was detected		No inhibitory effects	did not detect		
O=C(O[C@@H]1Cc2c(O)cc(O)cc2O[C@H]1c1ccc(O)c(O)c1)c1cc(O)c(O)c(O)c1 [CAG, (+)-catechin-3-O-gallate]	inhibited	40%				
Oc1cc(O)c2c(c1)O[C@H](c1ccc(O)c(O)c1)[C@H](O)C2 [EC, (–)-epicatechin]	did not have inhibitory activities; also recorded: No inhibitory activity was detected		No inhibitory effects	did not detect		
O=C(O[C@@H]1Cc2c(O)cc(O)cc2O[C@@H]1c1ccc(O)c(O)c1)c1cc(O)c(O)c(O)c1 [ECG, (–)-epicatechin-3-O-gallate]	inhibited	40%			5.21 ± 0.5 µM	
Oc1cc(O)c2c(c1)O[C@H](c1cc(O)c(O)c(O)c1)[C@H](O)C2 [EGC, (–)-epigallocatechin]	did not have inhibitory activities; also recorded: No inhibitory activity was detected		No inhibitory effects	did not detect		
Oc1cc(O)c2c(c1)O[C@@H](c1cc(O)c(O)c(O)c1)[C@H](O)C2 [GC, (+)-gallocatechin]	did not have inhibitory activities; also recorded: No inhibitory activity was detected		No inhibitory effects	did not detect		
O=C(O[C@@H]1Cc2c(O)cc(O)cc2O[C@H]1c1cc(O)c(O)c(O)c1)c1cc(O)c(O)c(O)c1 [GCG, (–)-gallocatechin-3-O-gallate]	inhibited	50%				
Oc1cc(O)c2c(c1)O[C@@]1(c3ccc(O)c(O)c3)Oc3cc(O)c4c(c3[C@@H]2[C@H]1O)O[C@H](c1ccc(O)c(O)c1)[C@H](O)C4 [PA2, procyanidin A2]	did not have inhibitory activities		No inhibitory effects	did not detect		
Oc1cc(O)c2c(c1)O[C@H](c1ccc(O)c(O)c1)[C@H](O)[C@H]2c1c(O)cc(O)c2c1O[C@H](c1ccc(O)c(O)c1)[C@H](O)C2 [PB2, procyanidin B2]	inhibited				75.3 ± 1.29 µM	81.5%
Oc1cc(O)c2c(c1)O[C@H](c1ccc(O)c(O)c1)[C@H](O)[C@H]2c1c(O)cc(O)c2c1O[C@H](c1ccc(O)c(O)c1)[C@@H](O)C2 [procyanidin B1]	inhibited					

Reference: PMC7733993, “Docking Characterization and in vitro Inhibitory Activity of Flavan-3-ols and Dimeric Proanthocyanidins Against the Main Protease Activity of SARS-Cov-2” (Frontiers in Plant Science, 2020)
